Test results from ChEMBL document CHEMBL1201862, “PubChem BioAssay data set” (2004).
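All cell lines were grown in 96-well plates and treated with compound for 48 hours. GI50 = concentration required for 50% inhibition of growth.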 Calls of active or inactive are those of the source. Cut-off read from the data, not from the text of the source: active = GI50 up to about 1.1 µM and inactive = higher.

Legend:
Experiment in all cases: DTP human tumour cell line panel, 48 h
A549 = system: A549
HCT-116 = system: HCT-116
HOP-62 = system: HOP-62
K562 = system: K562
LOX IMVI = system: LOX IMVI
Malme-3M = system: Malme-3M
NCI-H522 = system: NCI-H522
OVCAR-4 = system: OVCAR-4
RPMI-8226 = system: RPMI-8226
SF-268 = system: SF-268
SF-295 = system: SF-295
SF-539 = system: SF-539
SK-MEL-28 = system: SK-MEL-28
SK-MEL-5 = system: SK-MEL-5
SN12C = system: SN12C
SW-620 = system: SW-620
UACC-62 = system: UACC-62
UO-31 = system: UO-31
KM12 = system: KM12
MCF7 = system: MCF7

Measured: GI50

CCCCCC(/C=N/Nc1ccccc1)C(O)(C(F)(F)F)C(F)(F)F (stereo not given)
inactive: A549 > 100 µM | HCT-116 > 100 µM | HOP-62 > 100 µM | K562 > 100 µM | LOX IMVI > 100 µM | Malme-3M > 100 µM | NCI-H522 > 100 µM | OVCAR-4 > 100 µM | RPMI-8226 > 100 µM | SF-268 > 100 µM | SF-295 > 100 µM | SF-539 > 100 µM | SK-MEL-28 > 100 µM | SK-MEL-5 > 100 µM | SN12C > 100 µM | SW-620 > 100 µM | UACC-62 > 100 µM | UO-31 > 100 µM

C=CCN(CC=C)CC(C(C)=O)C(c1ccccc1)c1c(O)c2ccccc2oc1=O (stereo not given)
inactive: A549 > 100 µM | HCT-116 > 100 µM | HOP-62 > 100 µM | K562 > 100 µM | KM12 19 µM | LOX IMVI > 100 µM | Malme-3M > 100 µM | NCI-H522 82.4 µM | OVCAR-4 > 100 µM | RPMI-8226 > 100 µM | SF-268 > 100 µM | SF-295 30.5 µM | SF-539 > 100 µM | SK-MEL-28 > 100 µM | SK-MEL-5 > 100 µM | SN12C > 100 µM | SW-620 > 100 µM | UACC-62 > 100 µM | UO-31 18.2 µM

Nn1c(=O)n(Cc2ccccc2)n(-c2ccccc2)c1=O
inactive: A549 > 100 µM | HCT-116 > 100 µM | HOP-62 > 100 µM | K562 > 100 µM | KM12 > 100 µM | LOX IMVI > 100 µM | Malme-3M > 100 µM | NCI-H522 > 100 µM | OVCAR-4 > 100 µM | RPMI-8226 > 100 µM | SF-268 > 100 µM | SF-295 > 100 µM | SF-539 > 100 µM | SK-MEL-28 > 100 µM | SK-MEL-5 > 100 µM | SN12C > 100 µM | SW-620 > 100 µM | UACC-62 > 100 µM | UO-31 > 100 µM

Cc1ccccc1NC(=O)/C(=N/NC(=O)CC#N)C1C(=O)N(c2ccccc2)N=C1N (stereo not given)
inactive: A549 > 100 µM | HCT-116 > 100 µM | HOP-62 > 100 µM | K562 75.5 µM | KM12 > 100 µM | LOX IMVI > 100 µM | Malme-3M > 100 µM | NCI-H522 57.1 µM | OVCAR-4 > 100 µM | RPMI-8226 96.2 µM | SF-268 > 100 µM | SF-295 > 100 µM | SF-539 > 100 µM | SK-MEL-28 > 100 µM | SK-MEL-5 > 100 µM | SN12C > 100 µM | SW-620 > 100 µM | UACC-62 > 100 µM | UO-31 > 100 µM

O=C(N[C@H]1CC2(C=C(I)C(=O)C(I)=C2)OC1=O)OCc1ccccc1
inactive: A549 42.8 µM | HCT-116 15.9 µM | HOP-62 22.6 µM | K562 10.4 µM | KM12 16 µM | LOX IMVI 16 µM | Malme-3M 17.3 µM | NCI-H522 13.4 µM | OVCAR-4 18.4 µM | RPMI-8226 26.2 µM | SF-268 18.1 µM | SF-295 19.5 µM | SF-539 17.7 µM | SK-MEL-28 18.5 µM | SK-MEL-5 27 µM | SN12C 18.2 µM | UACC-62 16.5 µM | UO-31 18.2 µM

CN1CCc2c(sc3nc(Nc4ccccc4)n(N)c(=O)c23)C1
inactive: A549 > 100 µM | HCT-116 72.3 µM | HOP-62 > 100 µM | K562 37.1 µM | KM12 > 100 µM | MCF7 51.4 µM | RPMI-8226 83 µM | SF-268 > 100 µM | SF-295 63.1 µM | SF-539 > 100 µM | SK-MEL-5 77.3 µM | SN12C > 100 µM | UACC-62 38.4 µM | UO-31 > 100 µM

CNC(=O)OCc1nccc2c(C)c3[nH]c4ccc(OC)cc4c3cc12
inactive: A549 4.9 µM | HCT-116 1.95 µM | HOP-62 3.69 µM | K562 2.7 µM | KM12 3.78 µM | LOX IMVI 3.04 µM | Malme-3M 7.98 µM | NCI-H522 5.09 µM | OVCAR-4 8.11 µM | RPMI-8226 2.59 µM | SF-268 10.5 µM | SF-295 8.75 µM | SF-539 3.17 µM | SK-MEL-28 9.73 µM | SK-MEL-5 2.79 µM | SN12C 19.1 µM | SW-620 3.03 µM | UACC-62 6.37 µM | UO-31 3.35 µM

Nn1c(Cc2ccc(Cl)cc2)n[nH]c1=O
inactive: A549 > 100 µM | HCT-116 > 100 µM | HOP-62 72.1 µM | K562 > 100 µM | KM12 > 100 µM | LOX IMVI > 100 µM | Malme-3M > 100 µM | NCI-H522 > 100 µM | OVCAR-4 > 100 µM | RPMI-8226 > 100 µM | SF-268 > 100 µM | SF-295 > 100 µM | SF-539 > 100 µM | SK-MEL-28 > 100 µM | SK-MEL-5 > 100 µM | SN12C > 100 µM | SW-620 > 100 µM | UACC-62 > 100 µM | UO-31 34.3 µM

CC(=O)c1ccc(NC(=O)/C(CC(=O)c2sc(-c3cccnc3)nc2C)=N/NC(N)=O)cc1
inactive: A549 22.5 µM | HCT-116 22.6 µM | HOP-62 > 10 µM | K562 > 100 µM | KM12 > 100 µM | LOX IMVI > 100 µM | Malme-3M > 100 µM | NCI-H522 98.4 µM | OVCAR-4 > 100 µM | RPMI-8226 23.5 µM | SF-268 38.7 µM | SF-295 41.7 µM | SF-539 > 10 µM | SK-MEL-28 > 100 µM | SK-MEL-5 > 100 µM | SN12C 51.6 µM | SW-620 > 100 µM | UACC-62 52.2 µM | UO-31 50.4 µM

c1ccc2c[n+](CCCC[n+]3ccc4ccccc4c3)ccc2c1
inactive: A549 1.13 µM | HCT-116 > 100 µM | HOP-62 > 100 µM | K562 > 100 µM | KM12 > 100 µM | LOX IMVI > 100 µM | MCF7 > 100 µM | OVCAR-4 > 100 µM | RPMI-8226 > 100 µM | SF-268 > 100 µM | SF-295 > 100 µM | SF-539 > 100 µM | SK-MEL-28 > 100 µM | SK-MEL-5 > 100 µM | SN12C > 100 µM | SW-620 > 100 µM | UACC-62 > 100 µM

NC(=S)N/N=C1\NC(=O)/C(=C/c2ccc3c(c2)OCO3)S1
inactive: A549 30.6 µM | HCT-116 29.1 µM | HOP-62 20.9 µM | KM12 20.9 µM | LOX IMVI 28.3 µM | MCF7 32.7 µM | OVCAR-4 24.3 µM | SF-268 31.7 µM | SF-295 36.5 µM | SF-539 35.1 µM | SK-MEL-28 24 µM | SK-MEL-5 16.3 µM | SN12C 36.7 µM | SW-620 31.8 µM | UO-31 30.1 µM

NC1=NC(=O)/C(=C/c2ccccc2[N+](=O)[O-])C(N)=N1
inactive: A549 > 100 µM | HCT-116 > 100 µM | HOP-62 > 100 µM | K562 > 100 µM | KM12 > 100 µM | LOX IMVI > 100 µM | Malme-3M > 100 µM | NCI-H522 > 100 µM | OVCAR-4 > 100 µM | RPMI-8226 > 100 µM | SF-295 > 100 µM | SF-539 > 100 µM | SK-MEL-28 > 100 µM | SK-MEL-5 > 100 µM | SN12C > 100 µM | SW-620 > 100 µM | UACC-62 > 100 µM | UO-31 > 100 µM

COc1ccc(CN2C(=O)C(Cc3cc(OC)c(OC)c(C)c3OC)NC(=O)/C2=C/c2cc(OC)c(OC)c(C)c2OC)cc1 (stereo not given)
inactive: A549 37.1 µM | HCT-116 26.4 µM | HOP-62 50.9 µM | K562 33 µM | KM12 38.8 µM | LOX IMVI 41.8 µM | Malme-3M 22.6 µM | NCI-H522 18.5 µM | OVCAR-4 30.6 µM | RPMI-8226 28.3 µM | SF-268 51.6 µM | SF-295 43.5 µM | SF-539 45.6 µM | SK-MEL-28 59.8 µM | SK-MEL-5 18 µM | SN12C 27.5 µM | SW-620 33.9 µM | UACC-62 33.7 µM | UO-31 23.4 µM

Cc1c(C(=O)O)oc2ccc([N+](=O)[O-])cc12
inactive: A549 > 100 µM | HCT-116 > 100 µM | HOP-62 > 100 µM | K562 > 100 µM | KM12 > 100 µM | LOX IMVI > 100 µM | Malme-3M > 100 µM | NCI-H522 > 100 µM | OVCAR-4 > 100 µM | RPMI-8226 > 10 µM | SF-268 > 100 µM | SF-295 > 100 µM | SF-539 > 100 µM | SK-MEL-28 > 100 µM | SK-MEL-5 > 100 µM | SN12C > 100 µM | SW-620 > 100 µM | UACC-62 > 100 µM | UO-31 > 100 µM

CCOC(=O)C1=C(C)NC(=S)NC1c1ccccc1 (stereo not given)
inactive: A549 > 100 µM | HCT-116 > 59 µM | HOP-62 > 100 µM | K562 50 µM | KM12 > 100 µM | LOX IMVI > 63.7 µM | Malme-3M > 100 µM | NCI-H522 > 63.8 µM | OVCAR-4 32.3 µM | RPMI-8226 33.9 µM | SF-268 > 100 µM | SF-295 > 100 µM | SF-539 > 100 µM | SK-MEL-28 > 100 µM | SK-MEL-5 > 83.9 µM | SN12C > 100 µM | UACC-62 > 71.3 µM | UO-31 35.9 µM
